The supplement of paper PMC11451515

Key:
Conditions in all cases: 48 h
NOMO1 [1] = assay: cell viability relative to DMSO control; higher = less cytotoxic
In short: (§1)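 Cells were incubated for 48 h at 37°C before CellTiter-Glo One luminescence was read. The cells were NOMO1 or SEM (500 cells/well) or P12-Ichikawa (1000 cells/well) leukemia cells, adapted for at least four passages in each medium and seeded in 1536-well plates (5 μl). Dosing used library compounds in DMSO applied by pin over 11 threefold points, 47 μM to 0.79 nM. Viability is the per-plate percentage of DMSO wells, with cell-free wells as background.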

SEM cells [2] = assay: as above
In short: as §1

P12-Ichikawa [3] = assay: as above
In short: as §1

NOMO1 [4] = assay: AUC of viability dose-response curve (% viability x log10 dose units); higher = less sensitive
In short: (§2)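 Library compounds in DMSO were applied for 48 h at 37°C at 11 threefold doses (47 μM to 0.79 nM) to medium-adapted leukemia cells in 1536-well plates holding 500 or 1000 cells/well. Luminescence from CellTiter-Glo One was normalised plate by plate against DMSO and cell-free wells. Area under the curve came from trapezoidal integration of a log-logistic fit, after scaling curves that rose above full viability and discarding those that failed quality control. The fit had four parameters and used log10 doses.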

SEM cells [5] = assay: as above
In short: as §2

P12-Ichikawa [6] = assay: as above
In short: as §2

CN(C)CCOC(c1ccccc1)c1ccccc1
cell viability [%]
Conditions	NOMO1 [1]	P12-Ichikawa [3]	SEM cells [2]
HPLM + 10% dialyzed FBS, 0.000781 µM	94.4	104	90.4
HPLM + 10% dialyzed FBS, 0.00234 µM	84	107	90.5
HPLM + 10% dialyzed FBS, 0.00702 µM	105	105	108
HPLM + 10% dialyzed FBS, 0.0211 µM	116	103	110
HPLM + 10% dialyzed FBS, 0.0632 µM	111	111	106
HPLM + 10% dialyzed FBS, 0.19 µM	112	111	98.1
HPLM + 10% dialyzed FBS, 0.569 µM	112	112	97.1
HPLM + 10% dialyzed FBS, 1.71 µM	113	103	94.3
HPLM + 10% dialyzed FBS, 5.12 µM	109	109	91.8
HPLM + 10% dialyzed FBS, 15.4 µM	104	111	92.9
HPLM + 10% dialyzed FBS, 46.1 µM	83.5	82.8	90.3
RPMI 5 mM glucose + 10% FBS, 0.000781 µM	112	96.1	107
RPMI 5 mM glucose + 10% FBS, 0.00234 µM	111	105	107
RPMI 5 mM glucose + 10% FBS, 0.00702 µM	106	99.4	113
RPMI 5 mM glucose + 10% FBS, 0.0211 µM	121	112	105
RPMI 5 mM glucose + 10% FBS, 0.0632 µM	117	110	111
RPMI 5 mM glucose + 10% FBS, 0.19 µM	106	105	114
RPMI 5 mM glucose + 10% FBS, 0.569 µM	115	105	104
RPMI 5 mM glucose + 10% FBS, 1.71 µM	107	105	117
RPMI 5 mM glucose + 10% FBS, 5.12 µM	107	100	94.1
RPMI 5 mM glucose + 10% FBS, 15.4 µM	101	110	116
RPMI 5 mM glucose + 10% FBS, 46.1 µM	53.6	85.5	97.5
RPMI 5 mM glucose + 10% dialyzed FBS, 0.000781 µM	94.6	94	104
RPMI 5 mM glucose + 10% dialyzed FBS, 0.00234 µM	112	102	96.8
RPMI 5 mM glucose + 10% dialyzed FBS, 0.00702 µM	101	104	115
RPMI 5 mM glucose + 10% dialyzed FBS, 0.0211 µM	113	104	121
RPMI 5 mM glucose + 10% dialyzed FBS, 0.0632 µM	122	112	119
RPMI 5 mM glucose + 10% dialyzed FBS, 0.19 µM	111	104	114
RPMI 5 mM glucose + 10% dialyzed FBS, 0.569 µM	110	105	122
RPMI 5 mM glucose + 10% dialyzed FBS, 1.71 µM	109	101	102
RPMI 5 mM glucose + 10% dialyzed FBS, 5.12 µM	104	111	94.8
RPMI 5 mM glucose + 10% dialyzed FBS, 15.4 µM	119	96.8	94.4
RPMI 5 mM glucose + 10% dialyzed FBS, 46.1 µM	64.6	83	92

AUC of viability dose-response curve
Conditions	NOMO1 [4]	P12-Ichikawa [6]	SEM cells [5]
HPLM + 10% dialyzed FBS	470	471	460
RPMI 5 mM glucose + 10% FBS	459	473	473
RPMI 5 mM glucose + 10% dialyzed FBS	467	469	452
